The values below come from ChEMBL document CHEMBL1201862, “PubChem BioAssay data set” (2004).

The source made the active and inactive calls.

For assay [1], the target named is T1, Fatty acid synthase (Homo sapiens, UniProt P49327). Nature of the assay: FAS thioesterase domain inhibitors, dose response, biochemical, kinetic fluorescence intensity (AID 624326).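 Note: rate of fluorescence rise from hydrolysis of a fluorogenic O-methyl fluorescein ester substrate.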 In kind it is functional.
Assay [2] concerns the target T2, Protein RecA (Mycobacterium tuberculosis, UniProt P9WHJ3).
T2 sequence (P9WHJ3 whole entry): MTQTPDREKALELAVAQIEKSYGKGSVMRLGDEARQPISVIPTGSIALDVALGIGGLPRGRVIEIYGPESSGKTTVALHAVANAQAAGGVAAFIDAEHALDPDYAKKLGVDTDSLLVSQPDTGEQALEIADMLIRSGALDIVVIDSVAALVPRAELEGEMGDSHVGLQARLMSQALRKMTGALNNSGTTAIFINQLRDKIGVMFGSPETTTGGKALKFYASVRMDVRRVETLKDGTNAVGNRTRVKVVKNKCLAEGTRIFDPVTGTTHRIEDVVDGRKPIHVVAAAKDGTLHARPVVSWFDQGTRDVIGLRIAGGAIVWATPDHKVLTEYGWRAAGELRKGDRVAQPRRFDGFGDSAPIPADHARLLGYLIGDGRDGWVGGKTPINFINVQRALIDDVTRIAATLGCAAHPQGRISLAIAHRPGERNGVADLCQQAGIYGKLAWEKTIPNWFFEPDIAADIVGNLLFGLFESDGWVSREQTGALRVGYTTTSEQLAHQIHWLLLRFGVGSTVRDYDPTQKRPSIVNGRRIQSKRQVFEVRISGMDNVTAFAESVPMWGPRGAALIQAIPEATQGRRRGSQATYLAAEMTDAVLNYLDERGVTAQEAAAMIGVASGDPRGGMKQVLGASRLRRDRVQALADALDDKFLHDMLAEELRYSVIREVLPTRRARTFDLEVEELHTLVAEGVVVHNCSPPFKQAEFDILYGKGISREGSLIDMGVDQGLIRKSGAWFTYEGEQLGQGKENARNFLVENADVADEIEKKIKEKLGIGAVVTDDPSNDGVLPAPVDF
Nature of the assay: Fluorescence Cell-Free Homogeneous Dose Retest to Identify Inhibitors of RecA-Intein Splicing Activity. [Related pubchem assays (depositor defined):AID2097, AID2223, AID489010, AID492950]. In kind it is functional.

Assay [3] concerns the target T3, Replicative DNA helicase DnaB (Mycobacterium tuberculosis, UniProt P9WMR3).
T3 sequence (P9WMR3 whole entry): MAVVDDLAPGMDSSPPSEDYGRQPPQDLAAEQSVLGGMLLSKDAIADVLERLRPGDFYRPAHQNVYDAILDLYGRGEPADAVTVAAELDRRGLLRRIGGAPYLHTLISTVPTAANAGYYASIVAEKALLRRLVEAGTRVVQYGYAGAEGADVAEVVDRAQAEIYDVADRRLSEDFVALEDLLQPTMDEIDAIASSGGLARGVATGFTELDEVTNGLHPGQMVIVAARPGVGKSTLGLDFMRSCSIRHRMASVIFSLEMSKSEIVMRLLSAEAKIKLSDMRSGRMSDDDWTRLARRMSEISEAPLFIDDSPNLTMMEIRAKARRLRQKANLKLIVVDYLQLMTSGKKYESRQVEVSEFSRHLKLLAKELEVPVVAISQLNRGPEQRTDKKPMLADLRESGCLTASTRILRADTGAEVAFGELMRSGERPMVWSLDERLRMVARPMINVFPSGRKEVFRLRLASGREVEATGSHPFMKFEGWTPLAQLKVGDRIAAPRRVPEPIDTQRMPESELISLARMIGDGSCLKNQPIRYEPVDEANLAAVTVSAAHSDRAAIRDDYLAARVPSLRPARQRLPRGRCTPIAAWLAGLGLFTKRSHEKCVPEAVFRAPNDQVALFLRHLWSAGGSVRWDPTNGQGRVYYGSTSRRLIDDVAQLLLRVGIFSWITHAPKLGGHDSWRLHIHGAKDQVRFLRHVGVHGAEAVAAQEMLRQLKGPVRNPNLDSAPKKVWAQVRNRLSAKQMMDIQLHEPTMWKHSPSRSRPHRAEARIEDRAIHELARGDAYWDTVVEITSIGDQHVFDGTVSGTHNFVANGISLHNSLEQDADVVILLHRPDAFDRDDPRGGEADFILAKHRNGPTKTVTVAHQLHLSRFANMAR
Nature of the assay: DnaB intein splicing inhibitors, dose response, biochemical, cell-free fluorescence (AID 449749). It is filed as functional.

In assay [4] the target is T1, Fatty acid synthase. Kind of assay: FAS thioesterase domain inhibitors, dose response, biochemical, endpoint fluorescence intensity, uHTS hits (AID 624327).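 Note: fluorescence from hydrolysis of an O-methyl fluorescein acyl ester substrate by the enzyme.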 It is filed as functional.
Assay [5] addresses T4, Sentrin-specific protease 8 (Homo sapiens, UniProt Q96LD8).
T4 sequence (Q96LD8 whole entry): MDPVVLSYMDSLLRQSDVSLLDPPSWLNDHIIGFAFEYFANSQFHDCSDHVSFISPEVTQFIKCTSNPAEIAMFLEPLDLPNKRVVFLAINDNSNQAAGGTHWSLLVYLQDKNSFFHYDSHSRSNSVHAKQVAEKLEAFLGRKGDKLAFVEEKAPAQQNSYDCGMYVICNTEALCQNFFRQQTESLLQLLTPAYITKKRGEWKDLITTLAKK
In kind it is functional.

In assay [6] the target is T5, Sentrin-specific protease 7 (Homo sapiens, UniProt Q9BQF6).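 Note: Luminescence-based dose-response confirmation of ultra-high-throughput screening hits, measuring inhibition of SENP7.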
T5 sequence (Q9BQF6 whole entry): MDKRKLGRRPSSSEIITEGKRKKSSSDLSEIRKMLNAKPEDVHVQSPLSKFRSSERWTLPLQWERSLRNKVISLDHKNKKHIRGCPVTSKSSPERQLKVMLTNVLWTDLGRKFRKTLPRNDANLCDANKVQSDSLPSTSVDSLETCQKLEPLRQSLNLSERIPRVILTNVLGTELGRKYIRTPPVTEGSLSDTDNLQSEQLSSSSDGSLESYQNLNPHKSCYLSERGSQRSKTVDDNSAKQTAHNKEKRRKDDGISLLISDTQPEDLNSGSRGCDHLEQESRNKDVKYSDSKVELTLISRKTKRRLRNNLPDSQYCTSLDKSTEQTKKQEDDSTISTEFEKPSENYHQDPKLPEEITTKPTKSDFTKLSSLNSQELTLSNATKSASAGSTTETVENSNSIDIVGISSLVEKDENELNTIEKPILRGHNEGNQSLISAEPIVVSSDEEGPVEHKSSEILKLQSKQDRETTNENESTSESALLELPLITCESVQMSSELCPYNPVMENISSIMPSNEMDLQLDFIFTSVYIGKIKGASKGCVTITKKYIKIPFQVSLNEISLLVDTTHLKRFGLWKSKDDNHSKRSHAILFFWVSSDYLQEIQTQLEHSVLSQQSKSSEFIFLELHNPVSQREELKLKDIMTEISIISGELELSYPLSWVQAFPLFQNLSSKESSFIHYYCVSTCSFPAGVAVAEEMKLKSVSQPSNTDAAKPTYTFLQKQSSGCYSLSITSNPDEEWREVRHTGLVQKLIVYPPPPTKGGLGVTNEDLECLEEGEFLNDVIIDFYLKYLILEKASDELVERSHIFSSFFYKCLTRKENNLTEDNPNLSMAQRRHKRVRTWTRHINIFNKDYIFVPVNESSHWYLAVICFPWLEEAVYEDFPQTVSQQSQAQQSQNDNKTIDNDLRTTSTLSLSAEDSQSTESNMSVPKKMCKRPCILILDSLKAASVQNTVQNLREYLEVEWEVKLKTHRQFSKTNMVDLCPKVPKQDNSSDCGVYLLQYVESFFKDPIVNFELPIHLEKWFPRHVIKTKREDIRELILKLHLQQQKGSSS
It is filed as functional.

The target in assay [7] is T6, Sentrin-specific protease 6 (Homo sapiens, UniProt Q9GZR1).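 Note: Luminescence-based dose-response confirmatory assay of SENP6 inhibition, following up an ultra-high-throughput screen.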
T6 sequence (Q9GZR1 whole entry): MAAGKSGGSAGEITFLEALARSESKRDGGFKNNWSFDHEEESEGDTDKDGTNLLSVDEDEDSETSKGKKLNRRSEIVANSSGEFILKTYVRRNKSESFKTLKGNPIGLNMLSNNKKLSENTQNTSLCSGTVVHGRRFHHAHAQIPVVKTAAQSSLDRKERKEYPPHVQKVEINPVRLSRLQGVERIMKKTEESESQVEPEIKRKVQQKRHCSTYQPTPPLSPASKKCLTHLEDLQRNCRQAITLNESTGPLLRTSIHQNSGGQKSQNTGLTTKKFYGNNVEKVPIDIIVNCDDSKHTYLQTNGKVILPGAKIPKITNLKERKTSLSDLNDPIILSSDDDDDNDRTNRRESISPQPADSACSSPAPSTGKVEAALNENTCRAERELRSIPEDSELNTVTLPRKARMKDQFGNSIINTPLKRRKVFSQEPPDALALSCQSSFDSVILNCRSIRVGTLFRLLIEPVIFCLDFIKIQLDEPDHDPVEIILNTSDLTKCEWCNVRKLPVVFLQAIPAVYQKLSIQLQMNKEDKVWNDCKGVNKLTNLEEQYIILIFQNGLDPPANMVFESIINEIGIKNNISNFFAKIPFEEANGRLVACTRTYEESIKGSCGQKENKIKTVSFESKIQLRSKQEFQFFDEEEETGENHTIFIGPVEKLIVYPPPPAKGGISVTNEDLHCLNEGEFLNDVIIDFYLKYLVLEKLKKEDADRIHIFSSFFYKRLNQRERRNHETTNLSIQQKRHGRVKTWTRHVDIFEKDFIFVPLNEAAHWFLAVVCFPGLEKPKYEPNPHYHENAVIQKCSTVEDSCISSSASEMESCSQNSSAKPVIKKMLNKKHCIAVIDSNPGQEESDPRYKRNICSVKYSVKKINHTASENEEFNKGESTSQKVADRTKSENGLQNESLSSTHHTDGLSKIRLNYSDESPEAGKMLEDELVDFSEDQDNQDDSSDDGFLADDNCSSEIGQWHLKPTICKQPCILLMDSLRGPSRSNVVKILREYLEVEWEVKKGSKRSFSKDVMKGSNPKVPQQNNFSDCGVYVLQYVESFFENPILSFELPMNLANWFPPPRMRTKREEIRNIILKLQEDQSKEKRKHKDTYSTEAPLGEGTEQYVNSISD
It is filed as functional.

Assay [8] deals with T7, Caspase-3 (Homo sapiens, UniProt P42574).
T7 sequence (P42574 whole entry): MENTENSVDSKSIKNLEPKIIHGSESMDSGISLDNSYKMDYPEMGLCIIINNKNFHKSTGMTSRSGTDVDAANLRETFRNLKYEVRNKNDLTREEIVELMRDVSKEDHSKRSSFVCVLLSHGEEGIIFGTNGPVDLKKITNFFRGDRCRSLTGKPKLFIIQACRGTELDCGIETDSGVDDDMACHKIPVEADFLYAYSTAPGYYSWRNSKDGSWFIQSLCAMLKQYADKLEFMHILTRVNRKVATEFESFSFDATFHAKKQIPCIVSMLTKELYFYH
It is filed as functional.

For assay [9], the target named is T8, Polyadenylate-binding protein 1 (Homo sapiens, UniProt P11940). Nature of the assay: PABP1 MLLE–PAM2 interaction inhibitors, dose response, miRNA deadenylation inhibitor project, biochemical, fluorescence polarization, Cy5-PAM2 peptide, secondary (AID 602260). In kind it is functional. Particulars: read-out: IC50_Mean.
For assay [10], the target named is T8, Polyadenylate-binding protein 1. Nature of the assay: PABP1 MLLE–PAM2 binding inhibitor potency, dose response, biochemical, fluorescence polarization, FITC-PAM2 peptide (AID 602259). Particulars: read-out: IC50_Mean. In kind it is functional.
Assay [11] can be described thus: inhibitors of HIV Env-driven cell fusion, dose response, cherry-pick (AID 652057). It is filed as functional, cell-based.

T1 sequence (P49327 whole entry, the tested form may be a part): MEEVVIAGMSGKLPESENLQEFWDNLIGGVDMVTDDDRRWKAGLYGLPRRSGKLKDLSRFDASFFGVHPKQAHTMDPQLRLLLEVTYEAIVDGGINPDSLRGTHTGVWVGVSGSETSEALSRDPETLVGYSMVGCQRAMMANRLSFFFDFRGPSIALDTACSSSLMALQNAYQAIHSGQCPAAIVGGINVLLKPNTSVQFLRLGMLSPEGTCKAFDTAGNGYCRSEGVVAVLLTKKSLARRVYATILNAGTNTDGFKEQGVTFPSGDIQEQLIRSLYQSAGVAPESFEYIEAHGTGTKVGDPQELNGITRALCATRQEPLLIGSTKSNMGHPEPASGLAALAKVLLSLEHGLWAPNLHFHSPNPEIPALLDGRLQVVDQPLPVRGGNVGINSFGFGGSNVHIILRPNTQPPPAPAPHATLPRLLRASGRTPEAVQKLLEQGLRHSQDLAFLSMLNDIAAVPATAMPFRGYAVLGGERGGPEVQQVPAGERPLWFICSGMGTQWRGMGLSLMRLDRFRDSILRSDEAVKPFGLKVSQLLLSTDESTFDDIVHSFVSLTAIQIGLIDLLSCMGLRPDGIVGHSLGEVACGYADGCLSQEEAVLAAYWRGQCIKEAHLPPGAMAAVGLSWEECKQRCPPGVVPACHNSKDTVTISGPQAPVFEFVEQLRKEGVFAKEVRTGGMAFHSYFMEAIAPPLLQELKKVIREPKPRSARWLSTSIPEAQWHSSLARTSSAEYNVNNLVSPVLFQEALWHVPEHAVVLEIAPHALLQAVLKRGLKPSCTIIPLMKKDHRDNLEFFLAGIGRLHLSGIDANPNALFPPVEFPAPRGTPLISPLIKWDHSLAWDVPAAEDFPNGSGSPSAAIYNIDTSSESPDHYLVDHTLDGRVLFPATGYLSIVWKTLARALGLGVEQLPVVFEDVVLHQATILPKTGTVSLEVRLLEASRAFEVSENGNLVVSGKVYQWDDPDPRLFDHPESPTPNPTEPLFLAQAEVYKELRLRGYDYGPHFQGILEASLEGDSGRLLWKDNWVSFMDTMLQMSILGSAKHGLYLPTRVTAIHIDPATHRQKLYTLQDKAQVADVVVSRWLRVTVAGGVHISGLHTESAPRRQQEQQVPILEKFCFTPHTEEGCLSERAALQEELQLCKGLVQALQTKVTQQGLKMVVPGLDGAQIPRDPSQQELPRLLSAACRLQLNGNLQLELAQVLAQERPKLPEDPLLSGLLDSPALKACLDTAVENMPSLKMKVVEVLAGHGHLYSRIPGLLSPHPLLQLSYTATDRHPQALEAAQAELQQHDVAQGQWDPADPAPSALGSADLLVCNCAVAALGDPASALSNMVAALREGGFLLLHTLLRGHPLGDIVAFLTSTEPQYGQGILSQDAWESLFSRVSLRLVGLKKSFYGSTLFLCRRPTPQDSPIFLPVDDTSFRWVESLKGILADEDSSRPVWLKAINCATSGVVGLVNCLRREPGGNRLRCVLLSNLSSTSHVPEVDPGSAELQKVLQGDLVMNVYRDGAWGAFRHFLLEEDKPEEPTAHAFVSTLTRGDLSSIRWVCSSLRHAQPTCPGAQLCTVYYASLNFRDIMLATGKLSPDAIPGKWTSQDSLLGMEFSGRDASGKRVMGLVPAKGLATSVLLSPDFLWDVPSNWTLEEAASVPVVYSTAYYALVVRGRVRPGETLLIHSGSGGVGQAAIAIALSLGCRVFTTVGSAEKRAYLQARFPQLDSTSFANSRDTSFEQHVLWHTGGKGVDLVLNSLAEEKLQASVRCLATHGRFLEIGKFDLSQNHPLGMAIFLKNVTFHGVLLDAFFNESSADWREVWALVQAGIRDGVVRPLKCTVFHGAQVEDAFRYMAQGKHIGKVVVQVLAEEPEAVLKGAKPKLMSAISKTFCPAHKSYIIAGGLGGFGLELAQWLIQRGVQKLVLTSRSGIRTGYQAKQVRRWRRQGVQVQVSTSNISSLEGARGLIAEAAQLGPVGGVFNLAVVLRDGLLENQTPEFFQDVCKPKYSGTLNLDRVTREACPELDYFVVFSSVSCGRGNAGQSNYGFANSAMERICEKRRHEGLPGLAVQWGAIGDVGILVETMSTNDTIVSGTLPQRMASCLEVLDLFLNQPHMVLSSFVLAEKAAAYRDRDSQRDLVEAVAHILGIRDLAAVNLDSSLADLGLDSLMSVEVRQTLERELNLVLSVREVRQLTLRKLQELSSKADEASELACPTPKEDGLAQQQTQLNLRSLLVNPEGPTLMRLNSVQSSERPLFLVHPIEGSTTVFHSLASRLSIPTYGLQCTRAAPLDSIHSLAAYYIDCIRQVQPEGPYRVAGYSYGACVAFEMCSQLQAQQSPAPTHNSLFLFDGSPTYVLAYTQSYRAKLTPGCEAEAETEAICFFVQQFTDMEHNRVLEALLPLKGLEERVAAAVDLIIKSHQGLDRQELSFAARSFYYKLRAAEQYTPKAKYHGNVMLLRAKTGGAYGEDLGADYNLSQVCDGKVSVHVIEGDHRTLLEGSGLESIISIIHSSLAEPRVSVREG
T8 sequence (P11940 whole entry): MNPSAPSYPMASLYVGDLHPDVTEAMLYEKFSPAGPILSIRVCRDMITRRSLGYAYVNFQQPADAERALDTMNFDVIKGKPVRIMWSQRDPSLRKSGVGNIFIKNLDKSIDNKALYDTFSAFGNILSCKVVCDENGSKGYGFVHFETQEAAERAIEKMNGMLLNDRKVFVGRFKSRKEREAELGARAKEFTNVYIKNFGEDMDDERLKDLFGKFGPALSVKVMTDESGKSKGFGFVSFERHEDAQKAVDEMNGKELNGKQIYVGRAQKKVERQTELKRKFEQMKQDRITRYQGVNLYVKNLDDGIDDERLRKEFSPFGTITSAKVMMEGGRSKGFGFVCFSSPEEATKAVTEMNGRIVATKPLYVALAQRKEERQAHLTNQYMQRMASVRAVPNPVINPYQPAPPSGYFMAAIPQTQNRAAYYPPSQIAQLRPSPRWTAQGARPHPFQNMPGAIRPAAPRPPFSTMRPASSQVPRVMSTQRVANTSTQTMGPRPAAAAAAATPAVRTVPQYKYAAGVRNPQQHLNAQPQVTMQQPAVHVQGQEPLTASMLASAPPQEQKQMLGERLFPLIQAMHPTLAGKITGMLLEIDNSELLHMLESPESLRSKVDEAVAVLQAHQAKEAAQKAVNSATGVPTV

For the molecule `N#Cc1cc(-c2ccccc2)nc(Oc2ccccc2)n1`, the values for the IC50 in [1] and in assay [4] were 12.9 µM (active) and 12.2 µM (active), respectively. Also, the EC50 in assay [2] is 17.7 µM (active). For the same molecule, the AC50 in assay [3] is 6.79 µM (active).
For `CN(CC(=O)Nc1ccc(Cl)cc1)C(=O)CNC(=O)c1ccc2ccccc2c1`, the IC50 in assay [5] is > 100 µM (inactive); in assay [6] it was 11.1 µM (active); in [7], > 100 µM (inactive); in assay [8] it was 26.4 µM (active).
Take `O=[N+]([O-])c1ccc(CSc2ccc(S(=O)(=O)N3CCOCC3)cn2)cc1`: the IC50 was > 66 µM (inactive) in [9], 4.09 µM (active) in assay [1], > 66 µM (inactive) in assay [10] and 13.4 µM (active) in assay [4].
Turning to `Cc1nc2ccc(NC(=O)c3cc(Cl)ccn3)cc2s1`, the IC50 in assay [5] was 86.4 µM (active); in assay [6], 3.62 µM (active); in assay [7], 12.9 µM (active); in assay [8], 3.79 µM (active).
As to `O=C(COC(=O)c1ccc([N+](=O)[O-])s1)NC(=O)NCc1ccccc1`, the IC50 in assay [5] is 4.28 µM (active); in assay [6], 8.47 µM (active); in assay [7], 4.59 µM (active); in assay [8], 13.7 µM (active).
`Fc1ccccc1SCc1nnc(-c2ccccc2Br)o1`: the IC50 in [5] is 14.7 µM (active); in assay [6], 6.47 µM (active); in assay [7] it was 12.1 µM (active); in assay [8] it was 17.1 µM (active).
With `Clc1nc(-c2ccccn2)nc2scc(-c3ccccc3)c12`, the IC50 in [5] was 7.79 µM (active); in assay [6], 3.74 µM (active); in assay [7], 6.7 µM (active); in assay [8], 7.37 µM (active).
For `Oc1ccc(/C=C/c2ccnc3ccccc23)cc1`, the IC50 is > 100 µM (inactive) in [5], 9.49 µM (active) in assay [6], > 100 µM (inactive) in assay [7] and 34.5 µM (active) in [8].
As to `C[C@H]1CN([C@@H](C)CO)C(=O)c2cccc(NS(=O)(=O)c3ccc(Cl)cc3)c2O[C@@H]1CN(C)Cc1ccc(C(F)(F)F)cc1`, in assay [11], the AC50 was 29 µM (active).
Still for that read-out and setting: the same measure for `COc1ccc2c3c(n(C)c2c1)[C@@H](CO)N(C(=O)Nc1ccc(F)cc1)CC31CCN(Cc2cccc(F)c2)CC1`: < 0.26 µM (active).
`COc1ccccc1N1CCN(/N=C/c2ccc([N+](=O)[O-])cc2)CC1`: the IC50 is > 100 µM (inactive) in assay [5], 2.17 µM (active) in assay [6], 3.64 µM (active) in [7] and 2.68 µM (active) in assay [8].
